Drawing on PubChem BioAssay (NCI), this text covers GI50 and TGI for 8 compounds.

Where “and” joins values, the source holds several entries; their conditions need not be identical. Equal entries are not always repeated.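 Each compound was tested at five concentrations against cells in 96-well plates for 48 hours. At the GI50, growth is halved. TGI: concentration producing complete growth inhibition.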

Common to all, as to test: NCI tumour cell line growth inhibition, 48 h
Test [1] concerns K-562 leukemia.
For test [2], the system named is NCI/ADR-RES ovarian.
For test [3], the system named is OVCAR-5 ovarian.
Test [4] deals with NCI-H522 lung.
Test [5] deals with HL-60(TB) leukemia.
Test [6] deals with MOLT-4 leukemia.
Test [7] relates to U251 CNS.
For test [8], the system named is MALME-3M melanoma.
The subject of test [9] is UACC-62 melanoma.
Test [10] has as its system LOX IMVI melanoma.

With `Cn1cc(C2=C(c3ccccc3C(F)(F)F)C(=O)NC2=O)c2ccccc21`, the GI50 is 8.82 µM in test [1]; 9.53 µM in [2]; > 24.1 µM in test [3]; 11.6 µM in [4]; 6.87 µM in [5]; 5.89 µM in [6]. Besides, the GI50 is 7.06 µM in [7], > 18.5 µM in test [8], 9.97 µM in [9] and 8.46 µM in test [10]. The TGI in test [1] is > 25 µM; in [2], > 25 µM; in test [3], > 25 µM; in test [4], > 25 µM; in [5], 17.5 µM; in test [6], > 22.6 µM. Also, the TGI in test [7], in test [8], in test [9] and in [10] was > 25 µM in each case.
For the compound `CCOc1ccc(N=Cc2ccnc3ccccc23)cc1`, the TGI is 46.9 µM in test [1]; > 100 µM in [2]; > 100 µM in test [3]; > 94.8 µM in test [4]; 17 µM in [5]; > 100 µM in test [6]. The TGI was > 68.1 µM in test [7], > 97.7 µM in test [8], > 100 µM in test [9] and > 80.3 µM in test [10].
Take `CC(C)=C1CCC(CN2CCOCC2)C1=O` (configuration not stated): the TGI in [1] was found to be 6.33 µM; in [2] it was 40.8 µM; in test [3], 32.5 µM; in [4] it was 0.163 µM; in test [5], 14 µM; in test [6] it was 5.54 µM. Further, the TGI in [7] was found to be 48.9 µM; in [8], 7 µM; in [9], 33 µM; in test [10], 41.9 µM.
On to `CC1=C(C#N)C(/C=C(\Cl)c2ccc(F)cc2)C(C#N)=C(C)N1`, for which the GI50 in [1] was > 100 µM; in test [2], > 100 µM; in [3], > 100 µM; in test [4], > 100 µM; in test [5], 74 µM; in test [6], > 100 µM. The GI50 was > 100 µM in test [7], > 100 µM in [8], 81 µM in test [9] and > 100 µM in test [10]. The TGI in [1], in [2], in test [3], in test [4], in test [5] and in test [6] was > 100 µM in each case. Also, the TGI in test [7], in test [8], in test [9] and in [10] was > 100 µM throughout.
Take `CN(C)CCCCCNc1c2ccccc2nc2cccc([N+](=O)[O-])c12`: the GI50 in test [1] is 0.00212 µM; in [3] it was 0.00264 µM; in test [4], 0.00154 µM and 0.000466 µM; in test [5], 0.00266 µM; in [6], 0.00627 µM; in test [7] it was 0.0065 µM. The GI50 in test [9] is 0.00522 µM. Further, the TGI in [1] is > 0.0945 µM; in test [2], 0.0055 µM; in [3], 0.0115 µM; in [4], 0.0029 µM and 0.00186 µM; in test [5], > 0.1 µM; in test [6], > 0.1 µM. Besides, the TGI was determined as 0.0251 µM in test [7], 0.00506 µM in test [8], 0.00404 µM in test [9] and 0.0113 µM in test [10].
`CC(=O)O[C@H](C[C@H](C(C)C)N(C)C(=O)[C@@H](NC(=O)[C@H]1CCCCN1C)C(C)C)c1cccc(C(=O)N[C@@H](Cc2ccccc2)C[C@H](C)C(=O)O)n1`: the GI50 was 0.0103 µM in test [1]; 2.06 µM in test [2]; 0.248 µM in [3]; 0.0116 µM in test [4]; 0.0069 µM in test [5]; 0.0219 µM in test [6]. Further, the GI50 is 0.0353 µM in test [7], 0.0164 µM in test [8], 0.0276 µM in test [9] and 0.0255 µM in [10]. Further, the TGI in [1] is > 25 µM; in test [2] it was > 10.6 µM; in test [3], > 25 µM; in test [4], 0.401 µM; in test [5] it was 0.0321 µM; in [6] it was > 25 µM. Besides, the TGI in test [7], in [8], in test [9] and in test [10] was > 25 µM throughout.
`CN1CCN(CCCOc2cccc3nc(Nc4ccc(F)c(F)c4)ccc23)CC1`: the GI50 is 0.662 µM in test [1]; 5.16 µM in [2]; 4.71 µM in [3]; 1.01 µM in test [4]; 5.18 µM in [5]; 1.31 µM in [6]. For the same compound, the GI50 in [7] was 2.68 µM; in [8], 1.44 µM; in test [9], 0.695 µM; in test [10], 1.03 µM. Further, the TGI came to 1.49 µM in test [1]; 10.5 µM in test [2]; 9.73 µM in test [3]; 3.69 µM in [4]; 11 µM in [5]; 5.66 µM in test [6]. The TGI in test [7] was 7.2 µM; in test [8] it was 6.05 µM; in [9], 1.6 µM; in test [10], 3.36 µM.
For `Cn1cncc1-c1c(F)cncc1NC(=O)c1c(N)nn2cc(F)cnc12`, the GI50 in test [1] was 0.389 µM; in test [2] it was 1.45 µM; in test [3], 13 µM; in test [4] it was 3.46 µM; in [5], 0.272 µM; in [6], 0.203 µM. The GI50 in test [7] is 4.48 µM; in test [8], 5.16 µM; in test [9] it was 2.22 µM; in test [10] it was 0.238 µM. The TGI was > 100 µM in test [1]; > 100 µM in test [2]; > 100 µM in test [3]; 19.8 µM in test [4]; 0.717 µM in test [5]; 1.1 µM in test [6]. For the same compound, the TGI was > 100 µM in test [7], 68.5 µM in test [8], 6.9 µM in test [9] and 10.4 µM in test [10].
